Data from a melting point compilation (Tetko et al.; mined from patent text by program, amines drawn as free bases though some values may be those of a salt).

| Compound | melting point [°C] |
| --- | --- |
| O=C(Nc1ccc2cc(CN3CCCC3)cnc2c1)N1CCC(c2ccc(F)cc2)CC1 | 239 to 241 |
| CCCCCCCCCCCCCCCCOc1ccc(S(N)(=O)=O)cc1N | 103 to 105 |
| CCOC(=O)c1c(N2CCN(C(=O)OCC)CC2)c2ccc(C)nc2n(CC)c1=O | 138 to 140 |
| N#Cc1ccccc1C#CC1(C(F)(F)F)OC(=O)Nc2ccc(Cl)cc21 (racemic) | 245 to 246 |
| CCCN1NC(c2ccccc2)C2=C1C(=Cc1ccccc1)CSC2 (configuration not stated) | 106 to 118 |
| O=S1(=O)N=Cc2ccccc2O1 | 44 to 47 |
| CCCCCC(=O)OCC(=O)C1C(C)CC2C3=C(C(=O)CC21C)C1(C)C=CC(=O)C=C1C(F)C3 (configuration not stated) | 159 |
| CSc1ncccc1C(=O)CC(=O)C1CC1 | 87 to 89 |
| CS(=O)(=O)c1ccc(C2=C(c3ccccc3)C(=O)C2)cc1 | 139 to 140 |
| CCNC(=O)c1nc(-c2ccccc2)c(-c2ccc(=O)n(C(C)C)n2)s1 | 172 to 174 |
| O=c1c(Br)c(SCc2ccccc2)ccn1Cc1ccccc1 | 181 to 182 |
| CC1(C)CC(Nc2nc(NC3CC(C)(C)NC(C)(C)C3)nc(N(C3CC(C)(C)NC(C)(C)C3)C3CC(C)(C)NC(C)(C)C3)n2)CC(C)(C)N1 | 235 to 243 |
| S=C(Nc1ccc(Cl)cc1)NC1C2CC3C(C2)C31 (configuration not stated) | 164 to 166 |
| O=C(O)c1ccccc1-c1c2ccc(=O)cc-2oc2cc(O)ccc12 | 185 to 190 |
| COc1cc(OC)c(-c2cccs2)cc1C=CC(=O)c1ccc(S(=O)(=O)Nc2nnn[nH]2)cc1 | 185 to 186 |
| NC(=O)c1nc(-c2cccc(O)c2)nc2c1[nH]c(=O)n2-c1ccccc1-c1ccccc1 | 293 to 296 |
| CC(C)(C)CC(C)(C)NC(=O)C1=C(c2ccccc2)C(c2ccccc2)OC1=O (configuration not stated) | 110 to 111 |
| Nc1ncnc2c1c(Br)cn2COC(O)CCO (configuration not stated) | 170 to 172 |
| CCCCOc1c(N(C)C(=O)OC(C)(C)C)n(CC(C)(C)C)c(=O)c2ccc(O)cc12 | 196 to 197 |
| Cc1oncc1C(=O)Nc1ccc(-n2nc(C(F)(F)F)cc2C(F)(F)F)cc1 | 163 to 167 |
| CC(C)n1nc(-c2c(NCc3ccccc3)nc(N)nc2-c2ccc(F)cc2)ccc1=O | 191 to 192 |
| CCCCC(=O)Nc1ccc(Oc2ncc(Cl)cn2)c(C)c1 | 146 to 150 |
| O=[N+]([O-])c1c(-c2ccc(Cl)cc2)[nH]c(C(F)(F)F)c1-c1csc(Br)c1Br | 241 to 242 |
| CC(C)(C)c1ccc(OC(Cc2ccc(OCCNC(=O)c3ccc(-c4ccccn4)cc3)cc2)C(=O)O)cc1 (configuration not stated) | 94 to 96 |
| CN1CCC(NC(c2cccc(C(F)(F)F)c2)c2nc3ccccc3[nH]2)CC1 (configuration not stated) | 90 |

| Compound | melting point [°C] |
| --- | --- |
| Oc1cc2c(cc1O)OCC(c1ccc(F)cc1)C2 (configuration not stated) | 135 to 137 |
| CC(C)C1(C)N=C(c2ncc(CN(C)C)cc2C(=O)O)NC1=O (configuration not stated) | 186 to 190 |
| S=C(NCCC1=CCCCC1)Nc1ccccn1 | 153 to 155 |
| N=C(NO)c1ccc(-c2cccc(-c3cn4cc(C(=N)NO)ccc4n3)c2)cc1 | 252 to 254 |
| CCOC(=O)CCCCCBr | 34.5 to 36 |
| C=CCOC(=O)C1=C(C)NC(C)=C(C(=O)OC)C1c1ccccc1F (configuration not stated) | 130 |
| O=C1NC(=O)C(c2ccc3c(c2)CCC3)S1 (configuration not stated) | 124 to 125 |
| CCOc1c(Br)cc(C(C)(C)C)cc1C(C)(C)C | 55 to 56 |
| COC(=O)[C@@]1(O)C[C@@H](OC(=O)c2ccccc2)[C@@H]2OC(C)(C)O[C@@H]2C1 | 109 to 110 |
| O=C(O)c1ccc2[nH]cc(-c3cc4cccnc4[nH]3)c2c1 | > 300 |
| Cn1nc(-c2cnc3[nH]cc(C(=O)NC4CCCC4)c3n2)c2ccc(Cl)cc21 | 341 to 343 |
| CC(C)(C)c1cc(C2=NOC(CCOc3ccc([N+](=O)[O-])cc3)C2)cc(C(C)(C)C)c1O (configuration not stated) | 151 to 153 |
| CCN(CC)c1ccc(CNc2cc(C(=O)Nc3ccc(F)c(F)c3)ccc2OC)cc1 | 165 to 167 |
| CC(=NOCCCOc1ccccc1)C(=O)O | 86 to 88 |
| O=C(Nc1n[nH]c(=S)s1)N[C@@H](Cc1ccccc1)C(=O)N1CCN(c2ccccc2)CC1 | 210 to 211 |
| O=C1OCC2(CC2)N1c1nc(-c2ccc(Br)cc2)cs1 | 201 to 202 |
| CNC(=O)N1N=C(c2ccc(N)cc2)c2cc(Cl)c(Cl)cc2CC1C (configuration not stated) | 224 to 225 |
| CC(=O)N1CCC(C(=O)c2cc(F)ccc2F)CC1 | 82 to 87 |
| CSc1nnc(C(C)C2CC2)c(=O)n1N (configuration not stated) | 111 to 113 |
| Cn1ncc(C(=O)c2ccc(Cl)cc2Cl)c1OCc1ccc([N+](=O)[O-])cc1 | 116 to 118 |
| CCCC1N(C)c2cccc3cccc(c23)N1C | 70 to 71 |
| Cc1cc2c(-c3ccccc3Cl)c(NC(=O)Nc3ccc(F)cc3F)c(=O)n(C)c2cc1C | 242 to 244 |
| Cc1cc(NC(=O)N(CC(C)C)CC(C)C)cc(C)c1S(=O)(=O)C[N+](=O)[O-] | 153 to 155 |
| Nc1ncnc2c1c(-c1ccc(Oc3ccccc3)cc1)cn2C1CCOCC1 | 193 to 194 |
| O=c1ncc(Cl)cn1Cn1cc(Cl)cnc1=O | 260 |

| Compound | melting point [°C] |
| --- | --- |
| COc1ccc(S(=O)(=O)N2CCc3cccc(-c4ccc(N)cc4)c32)cc1 | 184 to 186 |
| Nc1ccc(S(=O)(=O)CI)cc1 | 170 to 172 |
| N#CN=C(N)Cc1ccc2c(c1)Nc1nccnc1S2 | 218 to 219 |
| CN1C(=O)[C@H](NC(=O)CCC2CCCCC2)[N+]([O-])=C(c2ccccc2)c2ccccc21 | 222 to 224 |
| Cc1c(Cc2ccc(C(C)C)cc2)c2c(c(C)c1NC(=O)CC(C)(C)C)CC(C)(CO)O2 (configuration not stated) | 186 to 187 |
| Cc1nc(C)c(Cl)c(NCc2nccc(SCCCSc3sccc3[N+](=O)[O-])c2C)n1 | 174 to 180 |
| COc1ccc(COC(=O)Nc2cc(-n3cccn3)nc(-c3ccco3)n2)cc1OC | 148 |
| CCCCC(CC(=O)Nc1cc(C(N)=O)ccc1C(C)(C)C)c1ccc(OCCCOC)cc1OC (configuration not stated) | 157 to 162 |
| Cc1c(Cl)cccc1N1C(=O)CN(c2ccccc2)C1=S | 154 to 156 |
| Cc1cc(C)c(Nc2nc(C)ncc2S(=O)(=O)c2ccc(-n3ccnc3)cc2)c(C)c1 | 230 to 232 |
| FC(F)C(F)(F)Sc1nc(-c2ccc(Cl)cc2)c(-c2cccs2)[nH]1 | 162 to 163 |
| COC(=O)c1cc(OC)c(O)cc1[N+](=O)[O-] | 101 to 102 |
| COc1ccc(C(C)OC)c(OC)c1C(O)c1cn(C(c2ccccc2)(c2ccccc2)c2ccccc2)cn1 (configuration not stated) | 96 to 99 |
| Nc1nc(N)c2c(Sc3ccccc3)cccc2n1 | 195 to 197 |
| O=C(Nc1ccc2cc(CN3CCCCCC3)cnc2c1)c1ccc(-c2ccc(F)cc2)cc1 | 202 |
| O=C(O)c1nc(-c2ccc(Cl)cc2Cl)n(-c2ccc(Cl)cc2)c1Br | 205 to 207 |
| COc1ccc(CNS(=O)(=O)CCCCl)cc1 | 78 to 80 |
| CC(NC(=O)C(F)(F)F)C(=O)O (configuration not stated) | 68 |
| O=c1c(CCCc2ccncc2)cc2cccnc2n1-c1ccc(Cl)c([N+](=O)[O-])c1 | 136 to 137 |
| Cc1cccc(C)c1NC(=O)CN1C(=O)C2(COc3cc4c(cc32)CCO4)c2ccccc21 (configuration not stated) | 261 to 262 |
| CC(C)(O)c1ccc(Cl)c2nc3n(c12)CCCN3c1ccc(Cl)cc1Cl | 216 to 218 |
| COc1ccc2c(Cc3c(Cl)cncc3Cl)nnc(Nc3nccs3)c2c1 | 218 to 220 |
| COC(=O)c1cc2cc(C(=O)CN3CCN(c4ccncc4)CC3)ccc2o1 | 173 to 177 |
| CCCCCCCc1ccccc1C=CC(=O)c1ccc(OCC=C(C)C)cc1O | 65 to 67 |
| CC(=O)N(C(C)=O)c1c(OCc2ccccc2)cc(Br)cc1[N+](=O)[O-] | 148 |

| Compound | melting point [°C] |
| --- | --- |
| CCCCc1ccc(NC(=O)OCc2ccccc2)c(=O)n1CC(=O)OC | 111 to 112 |
| O=c1oc(OCCBr)c(Cl)c2ccc(NC(=S)Nc3ccccc3)cc12 | 157 to 158 |
| Cc1ccc2[nH]c(-c3ccccc3)c(CCN3CCCCC3)c2c1 | 163 to 164 |
| O=C(NC[C@H]1CN(c2ccc3c(c2)CCCc2cn[nH]c2-3)C(=O)O1)C(F)F | 147 to 150 |
| N=c1nc(N)c2nc[nH]c2c(N)n1 | > 200 |
| O=C(O)CCCCN1CCC(C(O)(c2ccc(F)cc2)c2ccc(F)cc2)CC1 | 105 to 107 |
| O=C(Nc1cccc(S(=O)(=O)N2CCCC2)c1)c1cnn2c(C(F)F)cc(-c3ccc(Cl)c(Cl)c3)nc12 | 245 |
| ON=C(Nc1ccc(C(F)(F)F)cc1)C1=NN(c2ccc(Cl)cc2)C(c2ccc(F)cc2)C1 (configuration not stated) | 188 to 191 |
| COC(=O)C1(CCCN2CCN(c3ccccc3)CC2)Sc2ccccc2CCC1O (configuration not stated) | 152 to 154 |
| CCOC(=O)COc1cccc2c1CCc1sc(SCC(c3ccccc3)c3ccccc3)nc1-2 | 92 to 93 |
| CCCCC(=O)NC(Cc1ccccc1)C(=O)Nc1c(C(C)C)cccc1C(C)C (configuration not stated) | 237 to 238 |
| CCCC(CCC)Nc1cc(C(=O)O)ccc1N1C(=O)CCC1(CO)CO | 227 to 229 |
| COC(=O)c1cc(C)nc(C)c1 | 45 to 47 |
| CCOC(=O)C=C(C)c1ccc(-c2ccc(Cl)cc2)cc1 | 91 to 94 |
| CCOC(=O)C(C)Oc1ccc(Sc2ccc(C(F)(F)F)cc2[N+](=O)[O-])cc1 (configuration not stated) | 63 to 64 |
| Clc1ccc(C2(Cn3cncn3)CCC2)cc1 | 124 to 125 |
| COc1ccc2c(c1)c(Cc1nc(-c3cccc(Br)c3)cs1)c(C)n2C(=O)c1ccc(Cl)cc1 | 208 to 212 |
| COc1ccc(C2CNC(=O)C2)cc1OCC(CN1CCN(c2ccccc2)CC1)OC(C)=O (configuration not stated) | 128 to 133 |
| CSCc1cc(O)nc(CSC)n1 | 101 to 102 |
| CC(C)(C)c1ccc(C[C@H]2NC(=O)O[C@H]2c2ccc(F)cc2)cc1 (racemic) | 218 to 219 |
| Brc1ccc2c(c1)[nH]c1cc(Br)ccc12 | 224 to 225 |
| CCOC(=O)C(=O)NNC(=O)c1cc2cccc(N(C)S(=O)(=O)c3cccs3)c2[nH]1 | 133 to 134 |
